Patent publication US10696692B2, “Amido-benzyl sulfone and sulfoxide derivates” (Forma TM, LLC, priority 2012, dated 2020)
pIC50: −log10 of the molar value. Where two headings read alike, the source gives them in different places.

How the values were obtained:
A2780 cells = test: Assay 2: In-Vitro Cell Proliferation Assay (A2780 cells, SRB readout, 72 hours); assay type: cell-based; conditions: read-out: Cell Proliferation (IC50);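 further: viable cells counted via sulforhodamine B staining, absorbance at 570 nm, after 72 h exposure at 37 °C, DMSO 0.1% as control, media-only background subtracted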
NAMPT = NAMPT (Homo sapiens (Human), UniProt P43490); test: Assay 1: Biochemical Inhibition Assay (NAMPT enzymatic reaction, NMN quantified by mass spectrometry);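 further: recombinant His-tagged human NAMPT preincubated with compound 15 min, then reacted 30 min at rt with 1 µM NAM, 100 µM PRPP, 2.5 mM ATP, NMN product read by RapidFire MS, normalized to L-Cystathionine internal standard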
[1] = Homo sapiens, A2780, 72 h, A2780 cells, 72 hours, SRB

Sequence of NAMPT (P43490 whole entry): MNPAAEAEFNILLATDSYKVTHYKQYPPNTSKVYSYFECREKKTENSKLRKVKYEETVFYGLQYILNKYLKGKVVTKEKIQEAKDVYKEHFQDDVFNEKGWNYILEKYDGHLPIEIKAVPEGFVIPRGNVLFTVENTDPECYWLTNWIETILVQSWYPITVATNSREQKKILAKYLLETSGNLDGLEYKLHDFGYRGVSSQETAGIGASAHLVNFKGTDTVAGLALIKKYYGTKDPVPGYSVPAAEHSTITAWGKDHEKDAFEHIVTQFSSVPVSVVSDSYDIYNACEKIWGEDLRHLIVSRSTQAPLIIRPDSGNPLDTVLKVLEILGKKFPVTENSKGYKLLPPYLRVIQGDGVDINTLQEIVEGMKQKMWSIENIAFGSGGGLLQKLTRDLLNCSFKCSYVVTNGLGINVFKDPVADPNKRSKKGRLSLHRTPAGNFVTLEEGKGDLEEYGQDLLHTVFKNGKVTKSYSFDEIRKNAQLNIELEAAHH

SMILES	pIC50 (A2780 cells; [1])	pIC50 (NAMPT; read-out: Biochemical (IC50))	pIC50 (A2780 cells; A2780 cells, 72 hours, SRB)	pIC50 (A2780 cells; Homo sapiens, A2780, 72 h)	pIC50 (NAMPT; Biochemical (IC50))
CN1CCC2CN(S(=O)(=O)c3ccc(CNC(=O)c4ccc5nccn5c4)cc3)CC21 (racemic) [Example 144, cis-Imidazo[1,2-a]pyridine-6-carboxylic acid 4-(1-methyl-hexahydro-pyrrolo[3,4-b]pyrrole-5-sulfonyl)-benzylamide]	8.02	7.27			
O=C(NCc1ccc(S(=O)(=O)N2C[C@@H]3CC(F)(F)[C@@H]3C2)cc1)c1ccc2nccn2c1 (racemic) [Example 147, cis-Imidazo[1,2-a]pyridine-6-carboxylic acid 4-(6,6-difluoro-3-aza-bicyclo[3.2.0]heptane-3-sulfonyl)-benzylamide]	7.90	7.86			
O=C(NCc1ccc(S(=O)(=O)C2CCCOC2)cc1)c1cc2cnccc2[nH]1 (racemic) [Example 154, 1H-Pyrrolo[3,2-c]pyridine-2-carboxylic acid 4-(tetrahydro-pyran-3-sulfonyl)-benzylamide]	7.73	7.48			
O=C(NCc1ccc(S(=O)(=O)C2CCCOC2)cc1)c1cnc2[nH]ncc2c1 (racemic) [Example 155, 1H-Pyrazolo[3,4-b]pyridine-5-carboxylic acid 4-(tetrahydro-pyran-3-sulfonyl)-benzylamide]	6.75	6.66			
CC1(O)CCN(S(=O)(=O)c2ccc(CNC(=O)c3ccc4nccn4c3)cc2)C1 (racemic) [Example 161, Imidazo[1,2-a]pyridine-6-carboxylic acid 4-(3-hydroxy-3-methyl-pyrrolidine-1-sulfonyl)-benzylamide]	7.33	7.28			
CN1C2COCC1CN(S(=O)(=O)c1ccc(CNC(=O)c3ccc4nccn4c3)cc1)C2 (racemic) [Example 162, cis-Imidazo[1,2-a]pyridine-6-carboxylic acid 4-(9-methyl-3-oxa-7,9-diaza-bicyclo[3.3.1]nonane-7-sulfonyl)-benzylamide]				7.22	6.91
CC(=O)N1C[C@@H]2C[C@H]1CN2S(=O)(=O)c1ccc(CNC(=O)c2ccc3nccn3c2)cc1 (racemic) [Example 163, cis-Imidazo[1,2-a]pyridine-6-carboxylic acid 4-(5-acetyl-2,5-diaza-bicyclo[2.2.1]heptane-2-sulfonyl)-benzylamide]	7.24	7.09			
O=C(NCc1ccc(S(=O)(=O)N2CC3CC2CC3F)cc1)c1ccc2nccn2c1 (racemic) [Example 164, cis-Imidazo[1,2-alpyridine-6-carboxylic acid 4-(5-fluoro-2-aza-bicyclo[2.2.1]heptane-2-sulfonyl)-benzylamide]	7.91	8.09			
CN1C[C@H]2C[C@@H](C1)N(S(=O)(=O)c1ccc(CNC(=O)c3ccc4nccn4c3)cc1)C2 (racemic) [Example 165, cis-Imidazo[1,2-a]pyridine-6-carboxylic acid 4-(3-methyl-3,6-diaza-bicyclo[3.2.1]octane-6-sulfonyl)-benzylamide]	7.66	7.02			
O=C(NCc1ccc(S(=O)(=O)N2CC3CCC(F)(F)C3C2)cc1)c1ccc2nccn2c1 (single isomer, unassigned) [Example 73, cis-Imidazo[1,2-a]pyridine-6-carboxylic acid 4-(4,4-difluoro-hexahydro-cyclopenta[c]pyrrole-2-sulfonyl)-benzylamide]		8.52	9.10		
O=C(NCc1ccc(S(=O)(=O)N2CC3CCC(F)(F)C3C2)cc1)c1ccc2nccn2c1 (single isomer, unassigned) [Example 74, cis-Imidazo[1,2-a]pyridine-6-carboxylic acid 4-(4,4-difluoro-hexahydro-cyclopenta[c]pyrrole-2-sulfonyl)-benzylamide]		8.30	8.57		
O=C(NCc1ccc(S(=O)(=O)N2CCCCC2)cc1)c1cn2[nH]ccc2n1 [Example 1, 5H-Imidazo[1,2-b]pyrazole-2-carboxylic acid 4-(piperidine-1-sulfonyl)-benzylamide]	4.72	5.09			
O=C(NCc1ccc(S(=O)(=O)N2CC3CCC(C2)O3)cc1)c1cc2cnccc2[nH]1 [Example 2, 1H-Pyrrolo[3,2-c]pyridine-2-carboxylic acid 4-(8-oxa-3-aza-bicyclo[3.2.1]octane-3-sulfonyl)-benzylamide]	7.86	7.55			
O=C(NCc1ccc(S(=O)(=O)N2CC3CCC(C2)O3)cc1)c1cc2ccncc2s1 [Example 3, Thieno[2,3-c]pyridine-2-carboxylic acid 4-(8-oxa-3-aza-bicyclo[3.2.1]octane-3-sulfonyl)-benzylamide]	8.19	7.90			
O=C(NCc1ccc(S(=O)(=O)N2CC3CCC(C2)O3)cc1)c1ccc2nccn2c1 [Example 4, Imidazo[1,2-a]pyridine-6-carboxylic acid 4-(8-oxa-3-aza-bicyclo[3.2.1]octane-3-sulfonyl]-benzylamide]	8.13	7.14			
O=C(NCc1ccc(S(=O)(=O)N2CCCCC2)cc1)c1cc2ccncc2o1 [Example 5, Furo[2,3-c]pyridine-2-carboxylic acid 4-(piperidine-1-sulfonyl)-benzylamide]	7.53	8.03			
O=C(NCc1ccc(S(=O)(=O)N2CCCCC2)cc1)c1cnc2nccn2c1 [Example 6, Imidazo[1,2-a]pyrimidine-6-carboxylic acid 4-(piperidine-1-sulfonyl)-benzylamide]	6.89	8.46			
COC1CCN(S(=O)(=O)c2ccc(CNC(=O)c3cc4ccncc4o3)cc2)CC1 [Example 7, Furo[2,3-c]pyridine-2-carboxylic acid 4-(4-methoxy-piperidine-1-sulfonyl)-benzylamide]	7.88	7.96			
O=C(NCc1ccc(S(=O)(=O)N2CCOCC2)cc1)c1cnc2[nH]ncc2c1 [Example 9, 1H-Pyrazolo[3,4-b]pyridine-5-carboxylic acid 4-(morpholine-4-sulfonyl)-benzylamide]	6.56	6.98			

The next lines start with results.

pIC50 (A2780 cells; [1])	pIC50 (NAMPT; read-out: Biochemical (IC50))	pIC50 (A2780 cells; A2780 cells, 72 hours, SRB)	SMILES	pIC50 (A2780 cells; Homo sapiens, A2780, 72 h)	pIC50 (NAMPT; Biochemical (IC50))
8.02	7.76		O=C(NCc1ccc(S(=O)(=O)N2CC[C@H]3C[C@H]32)cc1)c1ccc2nccn2c1 (racemic) [Example 166, cis-Imidazo[1,2-a]pyridine-6-carboxylic acid 4-(2-aza-bicyclo[3.1.0]hexane-2-sulfonyl)-benzylamide]		
8.06	7.63		O=C(NCc1ccc(S(=O)(=O)N2CCOC3(CCOC3)C2)cc1)c1ccc2nccn2c1 (racemic) [Example 167, Imidazo[1,2-a]pyridine-6-carboxylic acid 4-(2,6-dioxa-9-aza-spiro[4.5]decane-9-sulfonyl)-benzylamide]		
7.30	7.52		O=C(NCc1ccc(S(=O)(=O)C2CCCOC2)cc1)c1cc2ccncc2o1 (racemic) [Example 168, Furo[2,3-c]pyridine-2-carboxylic acid 4-(tetrahydro-pyran-3-sulfonyl)-benzylamide]		
7.70	7.48		O=C(NCc1ccc(S(=O)(=O)C2CCCOC2)cc1)c1ccc2nccn2c1 (racemic) [Example 169, Imidazo[1,2-a]pyridine-6-carboxylic acid 4-(tetrahydro-pyran-3-sulfonyl)-benzylamide]		
6.45	6.68		O=C(NCc1ccc(S(=O)(=O)N2C[C@@H]3C[C@H]2CO3)cc1)c1cnc2[nH]ncc2c1 (racemic) [Example 172, cis-1H-Pyrazolo[3,4-b]pyridine-5-carboxylic acid 4-(2-oxa-5-aza-bicyclo[2.2.1]heptane-5-sulfonyl)-benzylamide]		
7.64	7.42		O=C(NCc1ccc(S(=O)(=O)N2C[C@H]3CCC(F)(F)[C@H]3C2)cc1)c1cnc2[nH]ncc2c1 (racemic) [Example 176, cis-1H-Pyrazolo[3,4-b]pyridine-5-carboxylic acid 4-(4,4-difluoro-hexahydro-cyclopenta[c]pyrrole-2-sulfonyl)-benzylamide]		
6.98	7.69		O=C(NCc1ccc(S(=O)(=O)N2CC3CC(F)(F)CC3C2)cc1)c1cnc2[nH]ncc2c1 (racemic) [Example 177, cis-1H-Pyrazolo[3,4-b]pyridine-5-carboxylic acid 4-(5,5-difluoro-hexahydro-cyclopenta[c]pyrrole-2-sulfonyl)-benzylamide]		
6.76	6.88		O=C(NCc1ccc(S(=O)(=O)N2C[C@@H]3CCO[C@@H]3C2)cc1)c1cnc2[nH]ncc2c1 (racemic) [Example 178, cis-1H-Pyrazolo[3,4-b]pyridine-5-carboxylic acid 4-(hexahydro-furo[2,3-c]pyrrole-5-sulfonyl)-benzylamide]		
7.51	8.12		CC(C)CN1CCC([S+]([O-])c2ccc(CNC(=O)c3cnc4nccn4c3)cc2)CC1 (racemic) [Example 179, Imidazo[1,2-a]pyrimidine-6-carboxylic acid 4-(1-isobutyl-piperidine-4-sulfinyl)-benzylamide]		
7.64	6.89		CC(C)CN1CCC([S+]([O-])c2ccc(CNC(=O)c3cnc4[nH]ncc4c3)cc2)CC1 (racemic) [Example 181, 1H-Pyrazolo[3,4-b]pyridine-5-carboxylic acid 4-(1-isobutyl-piperidine-4-sulfinyl)-benzylamide]		
8.25	7.58		CC(C)CN1CCC([S+]([O-])c2ccc(CNC(=O)c3cc4cnccc4[nH]3)cc2)CC1 (racemic) [Example 182, 1H-Pyrrolo[3,2-c]pyridine-2-carboxylic acid 4-(l-isobutyl-piperidine-4-sulfinyl)-benzylamide]		
9.12	8.05		CC(C)(C)OC(=O)N1CCCC12CCCN(S(=O)(=O)c1ccc(CNC(=O)c3ccc4nccn4c3)cc1)CC2 (racemic) [Example 183]		
8.24	7.85		CC(C)CN1CCC([S+]([O-])c2ccc(CNC(=O)c3ccc4nccn4c3)cc2)CC1 (racemic) [Example 187, N-(4-(1-isobutylpiperidin-4-ylsulfinyl)benzyl)H-imidazo[1,2-a]pyridine-6-carboxamide]		
